According to patent US20250268982A1, “COMPOSITIONS AND METHODS FOR TREATMENT AND/OR PROPHYLAXIS OF PROTEINOPATHIES” (REGAIN THERAPEUTICS SWEDEN AB, priority 2021, published 2025):

How the values were obtained:
[1] = Thioflavin-T kinetics assay of aggregation propensity; assay type: physicochemical; settings: 500 μg/ml peptide in normal saline, 12-24 h; FIGS. 6A, 6B
Procedure: THT method. ThT (Sigma-Aldrich) was prepared at 4 mM in MQ water. 50 μL of 500 μg/ml peptide (in normal saline) were incubated with 250 μL of 2.4 mM ThT solution (in water). ThT fluorescence was measured at 440 nm excitation and 480 nm emission in a black, clear-bottom 96-well plates (Corning, USA) at 10-15 min intervals (from bottom with periodic shaking) over 12-24 h on SpectraMax i3 microplate reader (Molecular Devices, USA). Curves were fitted using GraphPad Prism software.

ERK1/2 phosphorylation = ERK1/2 phosphorylation ELISA in SH-SY5Y cells; assay type: cell-based; settings: 30 pM peptide, 5 minutes, FIG. 16
Procedure: Phosphorylation of ERK is important for cell proliferation, neurogenesis and synaptic plasticity, and is downstream of calcium influx through the α7 receptor. To obtain the data shown in FIG. 16, SH-SY5Y cells were treated with 30 pM peptide for 5 minutes, then lysed and ERK phosphorylation quantified via a commercial ELISA kit.

5XFAD mice [2] = assay: Nest building behavioural test in 5XFAD mice; assay type: in vivo, mouse; settings: peptide i.v., FIGS. 4A-4C
Procedure: Female wild type and 5xFAD transgenic mice (Jackson laboratories) were used for the mouse behavioural experiment. Mice were individually housed in controlled humidity, temperature and light conditions, and had ad libitum access to food and water. Randomization to treatment groups was carried out by using GraphPad QuickCalcs (GraphPad Software, San Diego, CA, USA), and all data analysis was performed blinded to the experimental groups. […] Every effort was made to minimize the harm and suffering of the animals. The mice were treated with the vehicle or peptide preparations once a week i.v. starting at the age of 1 month until 3 months of age. Behavioral testing: the 5xFAD mice have deficits in nest building test starting at 3 months of age. Briefly, the soft bedding material and plastic shelter tube are moved to the one end of the cage and soft tissue paper (17 cm×17 cm) is placed in the other end of the cage. After 24 hours, a picture of the cage is taken, and the points given according to the set scale. 0 points are given if tissue paper remains untouched, 5 points are given when animal incorporates tissue into nest.

5XFAD mice [3] = assay: Plaque load by immunohistochemistry in brains of 5XFAD mice; assay type: in vivo, mouse; settings: 5XFAD mice treated for five weeks
Procedure: Female wild type and 5xFAD transgenic mice (Jackson laboratories) were used for the mouse behavioural experiment. Mice were individually housed in controlled humidity, temperature and light conditions, and had ad libitum access to food and water. Randomization to treatment groups was carried out by using GraphPad QuickCalcs (GraphPad Software, San Diego, CA, USA), and all data analysis was performed blinded to the experimental groups. All the animal experiments followed the Council of Europe Legislation and Regulation for Animal Protection and are approved by the National Animal Experiment Board of Finland. Every effort was made to minimize the harm and suffering of the animals. […]
Immunohistochemistry: The brains were post-fixed in 4% paraformaldehyde (PFA, Sigma-Aldrich, St. Louis, MO, USA) for 20 hours, followed by cryoprotection in 30% sucrose for 48 hours. […] For quantification of the immunoreactivities, hippocampal areas were imaged using 4 or 10× magnification on an AX70 microscope (Olympus corporation, Tokyo, Japan) with an adjacent digital camera (Color View 12 or F-View, Soft imaging system, Muenster, Germany) running AnalySis software (Soft Imaging System). Quantification of the immunoreactivities was performed using ImagePro Plus software (Media Cybernetics Inc., Rockville, MD, USA) at a predefined range and presented as relative immunoreactive area. […]

Substance	aggregation propensity (thioflavin-T fluorescence) [1]	downstream ERK1/2 phosphorylation (ERK1/2 phosphorylation)	phenotype restoration / rescue (behaviour) (5XFAD mice [2])	phenotype restoration / rescue (behaviour) (5XFAD mice [2]; listed as RT3)	plaque load in the cortex versus vehicle treated animals (5XFAD mice [3]; FIG. 5A)	plaque accumulation in the hippocampi versus vehicle treated animals (5XFAD mice [3]; FIG. 5B)
SEQ ID NO: 192: Aβ42 analogue with pyrrolysine substituted for the naturally occurring methionine at position 35	lower aggregation propensity than wild type Aβ42	–	–	–	–	–
SEQ ID NO: 190: Aβ42 analogue with N-methyl methionine substituted for the naturally occurring methionine at position 35	lower aggregation propensity than wild type Aβ42	induces downstream ERK1/2 phosphorylation	–	–	–	–
SEQ ID NO:88: Aβ42 analogue having a proline (P) substitution in place of methionine (M) at position 35 (M35P)	lower aggregation propensity than the peptide having SEQ ID NO:3	induces downstream ERK1/2 phosphorylation	phenotype rescue	–	–	–
SEQ ID NO:3: Aβ40: Aβ42 with deletion of residues 41 and 42 of the beta-sheet aggregation domain	lower aggregation propensity than wild type Aβ42	–	phenotype restoration	phenotype rescue	reduced plaque load in the cortex	decreased level of plaque accumulation in the hippocampi
